Measurements: article PMC3608532, “Characterization of a Single-Chain Variable Fragment Recognizing a Linear Epitope of Aβ: A Biotechnical Tool for Studies on Alzheimer’s Disease?” (PLoS ONE, 2013)

Assays:
[1] = target: Aβ(2-8); experiment: SPR binding kinetics to immobilized Aβ(2-8)
Description: (§1) Binding kinetics were determined by SPR using a Biacore™ X (GE Healthcare, UK). Synthetic Aβ peptides were dissolved in 10 mM NaAc, pH 4.0. The CM5 sensor chip surface (GE Healthcare, UK) was activated using N-ethyl-N′-3 […] carbodiimide (EDC) and N-hydroxysuccinimide (NHS) chemistry followed by 2-(2-pyridinyldithio)ethaneamine hydrochloride (PDEA), in order to introduce a reactive thiol group. Aβ was coupled via the C-terminal cysteine to the chip at a flow rate of 5 µl/min, and the remaining active groups were blocked by injecting cysteine. The immobilization procedure was performed according to manufacturer’s recommendation. All kinetic analyses were performed at a flow rate of 20 µl/min in PBS. Varying concentrations of scFv-IC16 (10 to 5000 nM) and IC16 (10 to 1000 nM) were injected. […] When required, the surface was regenerated by injecting 20 µl 50 mM glycine, pH 11.0. The data evaluation was performed using Biaevaluation Software 4.1.1. ScFv-IC16 data were fitted according to the Langmuir 1∶1 binding model, whereas IC16 data were fitted according to the bivalent binding model. Standard errors of equilibrium dissociation constants (KD) were calculated using standard errors of the corresponding association and dissociation rate constants.

[2] = test system: Aβ(pE3-8); experiment: SPR binding kinetics to immobilized Aβ(pE3-8); conditions: SPR; two N-terminal residues truncated, E3 modified into pyroE3
Description: as §1

[3] = test system: Aβ(1-42); experiment: Thioflavin T (ThT) assay of Aβ(1-42) fibrilization; type: biochemical, human; conditions: for fibrilization of Aβ(1-42), ThT fluorescence: PBS, room temperature, value after 10 h, n = 5
Description: 7.5 µM Aβ(1-42) (stock solution of 190 µM in DMSO, freshly prepared before usage) were incubated with 10 µM ThT in PBS in absence or presence of different concentrations of scFv-IC16 (1.5, 3.75 and 7.5 µM) at room temperature for 24 h. In addition, scFv-IC16 (7.5 µM) without Aβ(1-42) was tested under the same conditions as the negative control. For all samples a reference value, generated with PBS and ThT only, was subtracted. […] The plate was covered by an adhesive film preventing evaporation of the sample buffer. Fluorescence recordings were performed every 30 min for 22 h (excitation wavelength 440 nm, emission wavelength 490 nm, Polarstar Optima, BMG, Ortenberg, Germany). The experiments were performed five-fold, and the average of the obtained values as well as the standard deviation was calculated.

[4] = test system: Aβ(1-10); experiment: ELISA binding to Aβ(1-10) peptides; conditions: 60 ng/well, 100% C-terminally biotinylated Aβ1-10; p = 0.19 versus N-bio oligomers
Description: An ELISA was applied to characterize the binding affinity of scFv-IC16 to different Aβ conformers. After concentration determination of the Aβ(1-42) monomer, oligomer and fibril preparations, each conformer was diluted in immobilization buffer (0.1 M NaHCO3, pH 9.3) to a concentration of 5 µg/ml, and coated on Nunc immobilizer streptavidin F96 clear plates (250 ng/well) (Nunc, Thermo Scientific, Waltham, MA, USA). Alternatively, Aβ monomers were prepared seedless in the same concentration by dissolving 50 µg N-terminally biotinylated Aβ(1-42) in 1 ml immobilization buffer and diluting it further to 5 µg/ml. N- or C-terminally biotinylated Aβ(1-10) peptides were dissolved in immobilization buffer to a final concentration of 1.2 µg/ml (60 ng/well). 50 µl of these Aβ solutions were incubated in the well for 1 h. Each well was washed with 100 µl immobilization buffer and the plate was stored at 4°C overnight in 100 µl immobilization buffer per well. Unspecific binding sites were blocked with 50 µl blocking buffer (PBS, 1% BSA) at room temperature for 1 h. […] The reaction was terminated by adding sulfuric acid to a final concentration of 1 M. The absorbance was recorded at 450 nm on Polarstar Optima plate reader (BMG, Ortenberg, Germany).

[5] = SPR Biacore X, CM5 chip, PBS, 25°C, global fit, scFv-IC16 Langmuir 1:1 model, IC16 bivalent model, ± standard error, SEM

- Kd ([1]; SPR Biacore X, CM5 chip, PBS, 25°C, global fit, scFv-IC16 Langmuir 1:1 model, IC16 bivalent model): 0.112 µM
- k off [1, 5]: 7.65±0.03×10^−3 s^-1
- k on [1, 5]: 6.84±0.03×10^4 M^-1 s^-1
- Kd ([1]; SPR, Langmuir 1:1 binding model): ~0.112 µM
- binding to Aβ(pE3-8) [2]: no binding could be detected
- ELISA binding to Aβ(1-10), C-terminal biotin tag [4]: very similar to Aβ oligomers
Substance: scFv-IC16: single-chain variable fragment (VH-(Gly4Ser)3-VL, His6- and Myc-tag) derived from Aβ binding monoclonal antibody IC16, expressed in E. coli
- ThT fluorescence of scFv-IC16 only ([3]; 7.5 µM scFv-IC16 without Aβ(1-42), negative control, after 10 h): did not show ThT fluorescence
- fibrilization of Aβ(1-42), ThT fluorescence ([3]; ratio 1:1: 7.5 µM Aβ(1-42) with 7.5 µM scFv-IC16, 10 µM ThT): completely inhibited
- fibrilization of Aβ(1-42), ThT fluorescence ([3]; ratio 2:1: 7.5 µM Aβ(1-42) with 3.75 µM scFv-IC16, 10 µM ThT): reduced the ThT fluorescence significantly
- fibrilization of Aβ(1-42), ThT fluorescence ([3]; ratio 5:1: 7.5 µM Aβ(1-42) with 1.5 µM scFv-IC16, 10 µM ThT): reduced the ThT fluorescence significantly
